Source: patent US6028188A (priority 1994, dated 2000)
[mp] = methylphosphonate linkage

Assays:
[1] = system: complementary RNA targets; assay: Tm with complementary RNA target, oligomers 5'-TAG-CTT-CCT-TAG-CTC-CTG-3'; type: binding; conditions: Table XI
Procedure: (§1) Annealing reaction mixtures contained equimolar amounts of Oligomer and RNA target Oligomer (2.4 μM total strand concentration), 20 mM potassium phosphate (pH 7.2), 100 mM sodium chloride, 0.1 mM EDTA and 0.03% potassium sarkosylate. The reaction mixtures were heated to 80° C. and then slowly cooled to 4° C. over about 4 to 6 hours. The annealed samples were then transferred to 1 cm quartz cuvettes and Tm was monitored by absorbance at 260 nm as a function of temperature using a Varian Cary Model 2E Spectrophotometer containing a temperature controlled 6×6 sample holder which interfaced with an IBM compatible PC computer. The temperature was varied from 5° C. to 80° C. at a ramp rate of 1° C./minute. The Tm for each melt profile is determined as the point corresponding to the maximum of the first derivative of the curve corresponding to absorbance versus temperature.
The oligomers were synthesized according to methods set forth in the Examples herein and had mixed oligonucleoside sequences complementary to biologically relevant mRNA targets. Tm determinations were done according to the methods described in the proceeding Examples.

splice acceptor site = assay: Tm of splice acceptor site oligomers; type: binding; conditions: Table XIII
Procedure: as §1
The results are given as percent gene expression relative to no-oligomer treatment of cells. The concentration is given above the data columns in micromolar. CAT levels were determined in triplicate as previously given and the experiment has been repeated multiple times. The Tm of the oligomers was determined as previously given.

pG1036 (wild-type CAT) = assay: CAT expression, non-splicing reporter pG1036, in COS-7 cells; conditions: for inhibition of expression of non-splicing CAT gene (in words): pG1036
pG1035 (SplicerCAT) = assay: Inhibition of CAT expression, splicing reporter pG1035, in COS-7 cells; conditions: for reduction of CAT expression: pG1035, 1.0 micromolar
pGL2 (luciferase) = type: cell-based; conditions: for percent gene expression relative to no-oligomer treatment, pGL2 (splicing, no match): 1.0 μM; for inhibition of luciferase expression (in words): pGL2
Procedure: All cultures were maintained at 37° C.
This assay was performed generally as follows according to standard procedures. 20 μl of lysate was combined with 100 μl of luciferase assay reagent (Promega) and counted in a scintillation counter (Packard) within 20 seconds (as recommended by Promega).
In order to determine that the effect against pG1035 was not due to non-specific interference of splicing in general, pGL2 was used as an additional control. pGL2 encodes the luciferase gene and contains an intron that is unrelated to the intron in pG1035.

Substance	Tm(° C. RNA) [1] [°C]	Tm (splice acceptor site) [°C]	percent gene expression relative to no-oligomer treatment, pG1036 (non-splicing) (pG1036 (wild-type CAT); 0.1 μM) [%]	percent gene expression relative to no-oligomer treatment, pG1036 (non-splicing) (pG1036 (wild-type CAT); 0.3 μM) [%]	percent gene expression relative to no-oligomer treatment, pG1036 (non-splicing) (pG1036 (wild-type CAT); 1.0 μM) [%]	inhibition of expression of non-splicing CAT gene (in words) (pG1036 (wild-type CAT))	percent gene expression relative to no-oligomer treatment, pG1035 (splicing) (pG1035 (SplicerCAT); 0.1 μM) [%]	percent gene expression relative to no-oligomer treatment, pG1035 (splicing) (pG1035 (SplicerCAT); 0.3 μM) [%]	percent gene expression relative to no-oligomer treatment, pG1035 (splicing) (pG1035 (SplicerCAT); head printed 0.1) [%]	reduction of CAT expression (pG1035 (SplicerCAT)) [%]	percent gene expression relative to no-oligomer treatment, pGL2 (splicing, no match) (pGL2 (luciferase)) [%]	inhibition of luciferase expression (in words) (pGL2 (luciferase))
1630-1: 5'-TAG-CTT-CCT-TAG-CTC-CTG-3' [SEQ. ID. NO. 5], Racemic MP (DNA TAGCTTCCTTAGCTCCTG; all [mp], sugars by position and methylation of C not given here) [Oligomer 1630-1]	39.0	–	–	–	–	–	–	–	–	–	–	–
3373-1A: 24 mer, 2'-O-Me (MP(Rp)/DE), 5'-ccc tga gag aga gag aga ggt tcg [SEQ. ID. NO. 12] (CCCTGAGAGAGAGAGAGAGGTTCG; all 2'-O-methyl, backbone, methylation of C and T or U not given here; Rp methylphosphonate and diester linkages) [Oligomer 3373-1A]	–	84	91	89	105	Neither oligomer inhibited the expression of the non-splicing CAT gene, pG1036, significantly	81	48	26	74	127	not inhibited in any way
3373-1B: 18 mer 2'-O-Me (MP(Rp)/DE), 5'-gag aga gag aga ggt tcg-3' [SEQ. ID. NO. 13] (GAGAGAGAGAGAGGTTCG; all 2'-O-methyl, backbone, methylation of C and T or U not given here; Rp methylphosphonate and diester linkages) [Oligomer 3373-1B]	–	80	95	85	81	Neither oligomer inhibited the expression of the non-splicing CAT gene, pG1036, significantly	59	31	10	90	127	not inhibited in any way
